ChEMBL document CHEMBL4619758, “Discovery of 3-({5-Chloro-1-[3-(methylsulfonyl)propyl]-1H-indol-2-yl}methyl)-1-(2,2,2-trifluoroethyl)-1,3-dihydro-2H-imidazo[4,5-c]pyridin-2-one (JNJ-53718678), a Potent and Orally Bioavailable Fusion Inhibitor of Respiratory Syncytial Virus” (J Med Chem, 2020)

Columns and labels:
[1] = Clearance in Sprague-Dawley rat at 2 mg/kg, iv administered as single dose; format: ADME, organism-based; conditions: in vivo
[2] = Cytotoxicity against human HeLa cells assessed as reduction in cell viability after 3 days by ATPlite assay
[3] = Volume of distribution at steady state in Sprague-Dawley rat at 2 mg/kg, iv administered as single dose; format: ADME, organism-based; conditions: in vivo, read-out: Vdss
[4] = Protein binding in human plasma assessed as unbound fraction; format: ADME, cell-free
[5] = Cmax in Sprague-Dawley rat at 10 mg/kg, po administered as single dose; format: ADME, organism-based; set-up: dose 10 mg/kg, route oral; conditions: in vivo
[6] = Absolute oral bioavailability in Sprague-Dawley rat at 10 mg/kg administered as single dose; format: ADME, organism-based; conditions: in vivo
[7] = AUC in Sprague-Dawley rat at 10 mg/kg, po administered as single dose; format: ADME, organism-based; conditions: in vivo
[8] = Metabolic stability in human liver microsomes assessed as compound metabolized after 15 mins; format: ADME, Microsome; conditions: read-out: Drug metabolism
[9] = Metabolic stability in rat liver microsomes assessed as compound metabolized after 15 mins; format: ADME, Microsome; conditions: read-out: Drug metabolism
[10] = Ratio of AUC (0 to last) in lung to plasma of Sprague-Dawley rat at 10 mg/kg, po administered as single dose; format: ADME, organism-based; conditions: lung and plasma, read-out: Ratio AUC
[11] = in vitro; conditions: human, HeLa cells
Description: Selectivity index, ratio of CC50 for human HeLa cells to EC50 GFP-fused RSV 224 fusion protein infected in human HeLa cells

[12] = molecular target: Cytochrome P450 3A4 (Homo sapiens, UniProt P08684); test: Time-dependent inhibition of CYP3A4 in human liver microsomes using testosterone as substrate; format: ADME
Chain of Cytochrome P450 3A4 (P08684 whole entry): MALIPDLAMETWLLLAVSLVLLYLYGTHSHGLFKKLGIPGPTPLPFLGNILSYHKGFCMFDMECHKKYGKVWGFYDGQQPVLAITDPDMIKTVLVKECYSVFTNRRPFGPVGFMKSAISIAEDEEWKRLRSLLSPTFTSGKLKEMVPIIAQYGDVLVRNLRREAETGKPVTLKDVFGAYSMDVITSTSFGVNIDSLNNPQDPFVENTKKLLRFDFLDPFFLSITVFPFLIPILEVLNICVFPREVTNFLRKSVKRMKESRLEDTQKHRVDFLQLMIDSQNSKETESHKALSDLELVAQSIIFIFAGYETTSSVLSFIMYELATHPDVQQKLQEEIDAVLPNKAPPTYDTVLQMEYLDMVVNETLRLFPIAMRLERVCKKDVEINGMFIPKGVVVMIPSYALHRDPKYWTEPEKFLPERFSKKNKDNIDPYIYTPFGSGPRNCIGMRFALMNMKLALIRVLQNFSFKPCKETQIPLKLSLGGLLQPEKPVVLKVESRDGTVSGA

Row | metabolised at 0.25 h [8] [%] | SMILES | CC50 at 72 h [2] [µM] | also measured
1 | 17 | N#CCCCn1c(Cn2c(=O)n(C3CC3)c3ccncc32)cc2cc(Cl)ccc21 | > 50 | clearance [1]: 36.7 mL/min/kg; Vd [3]: 1.5 L/kg; fraction unbound [4]: 0.036; Cmax [5]: 1230 ng/mL; bioavailability [6]: 73%; AUC [7]: 3300 ng·h/mL; metabolised at 0.25 h [9]: 80%; Kp [10]: 1.6
2 | 34 | N#CCCCn1c(Cn2c(=O)n(-c3ncccn3)c3ccncc32)cc2cc(Cl)ccc21 | > 50 | –
3 | – | O=c1n(Cc2cc3cc(F)ccc3n2CCCCO)c2cnccc2n1C1CC1 | > 50 | –
4 | 15 | CS(=O)(=O)CCCn1c(Cn2c(=O)n(C3CN(S(C)(=O)=O)C3)c3ccncc32)cc2cc(Cl)ccc21 | > 50 | –
5 | 24 | N#CCCCn1c(Cn2c(=O)n(-c3ccc(C(=O)NC4CC4)cc3)c3ccncc32)cc2cc(Cl)ccc21 | > 50 | –
6 | – | O=c1n(Cc2nc3cnccc3n2CCCCO)c2cnccc2n1C1CC1 | > 100 | selectivity ratio [11]: > 18000
7 | – | CS(=O)(=O)CCCn1c(Cn2c(=O)n(C3CC3)c3ccncc32)cc2cc(Br)ccc21 | > 50 | –
8 | 36 | COc1ccc(-n2c(=O)n(Cc3cc4cc(Cl)ccc4n3CCCC#N)c3cnccc32)c(C)c1 | > 50 | –
9 | 15 | O=c1n(Cc2cc3cnccc3n2CCCCF)c2cnccc2n1C1CC1 | > 50 | –
10 | 32 | CS(=O)(=O)CCCn1c(Cn2c(=O)n(C3CC3)c3ccncc32)cc2cnccc21 | > 50 | –
11 | – | CC(C)CCn1c(Cn2c(=O)n(C3CC3)c3ccncc32)nc2ncccc21 | > 100 | selectivity ratio [11]: > 12000
12 | 23 | N#CCCCn1c(Cn2c(=O)n(-c3ccncc3)c3ccncc32)cc2cc(Cl)ccc21 | > 50 | –
13 | 60 | N#CCCCn1c(Cn2c(=O)n(-c3ccncn3)c3ccncc32)cc2cc(Cl)ccc21 | > 50 | –
14 | 0 | N#CCCCn1c(Cn2c(=O)n(-c3ccc(OC(F)(F)F)cc3)c3ccncc32)cc2cc(Cl)ccc21 | > 50 | –
15 | – | O=C(O)CCCn1c(Cn2c(=O)n(C3CC3)c3ccncc32)cc2cc(Cl)ccc21 | > 50 | –
16 | – | O=c1n(Cc2cc3ncccc3n2CCCCO)c2cnccc2n1C1CC1 | > 100 | selectivity ratio [11]: > 613
17 | 49 | O=c1n(Cc2cc3cc(Cl)ccc3n2CCCCO)c2cnccc2n1C1CC1 | > 50 | –
18 | 17 | COc1ccc(-n2c(=O)n(Cc3cc4cc(Cl)ccc4n3CCCC#N)c3cnccc32)c(F)c1 | > 50 | –
19 | 14 | CS(=O)(=O)CCCn1c(Cn2c(=O)n(C3CNC3)c3ccncc32)cc2cc(Cl)ccc21 | > 50 | –
20 | 0 | O=c1n(Cc2nc3nc(Cl)ccc3n2CCCCO)c2cnccc2n1C1CC1 | > 50 | –
21 | 37 | O=c1n(Cc2cc3cc(Cl)ccc3n2CCCCF)c2cnccc2n1C1CC1 | > 50 | –

Row | metabolised at 0.25 h [8] [%] | SMILES | CC50 at 72 h [2] [µM] | also measured
22 | – | O=c1n(Cc2cc3cc(Br)ccc3n2CCCCO)c2cnccc2n1C1CC1 | > 50 | –
23 | – | O=c1n(Cc2cc3cnccc3n2CCCCO)c2cnccc2n1C1CC1 | > 100 | selectivity ratio [11]: > 57000
24 | – | CC(C)CCn1c(Cn2c(=O)n(C3CC3)c3ccncc32)nc2cccnc21 | > 100 | selectivity ratio [11]: > 80
25 | 29 | CC1(n2c(=O)n(Cc3cc4cc(Cl)ccc4n3CCCS(C)(=O)=O)c3cnccc32)CC1 | > 50 | TDI [12]: Not Active
26 | – | CC(C)CCn1c(Cn2c(=O)n(C3CC3)c3ccncc32)nc2ccncc21 | > 100 | selectivity ratio [11]: > 987
27 | – | CS(=O)(=O)CCCn1c(Cn2c(=O)n(C3CC3)c3ccncc32)cc2cc(C(F)(F)F)ccc21 | > 50 | –
28 | – | O=c1n(Cc2cc3ccncc3n2CCCCO)c2cnccc2n1C1CC1 | > 100 | selectivity ratio [11]: > 76
29 | – | CC(C)CCn1c(Cn2c(=O)n(C3CC3)c3ccncc32)cc2cccnc21 | > 100 | –
30 | 27 | N#CCCCn1c(Cn2c(=O)n(-c3ccncc3F)c3ccncc32)cc2cc(Cl)ccc21 | > 50 | –
31 | – | CC(C)CCn1c(Cn2c(=O)n(C3CC3)c3ccncc32)nc2cnccc21 | > 100 | selectivity ratio [11]: > 3000
32 | – | O=c1n(Cc2cc3ccc(Cl)cc3n2CCCCO)c2cnccc2n1C1CC1 | > 50 | –
33 | – | COc1ccc2c(c1)cc(Cn1c(=O)n(C3CC3)c3ccncc31)n2CCCCO | > 50 | –
34 | 36 | Cc1ccc(-n2c(=O)n(Cc3cc4cc(Cl)ccc4n3CCCC#N)c3cnccc32)cc1 | > 50 | –
35 | 37 | N=C(CCCn1c(Cn2c(=O)n(C3CC3)c3ccncc32)cc2cc(Cl)ccc21)NO | > 50 | –
36 | 9 | N#CCCCn1c(Cn2c(=O)n(-c3ccc(C(=O)O)cc3)c3ccncc32)cc2cc(Cl)ccc21 | > 50 | –
37 | 41 | CC(C)(O)CCCn1c(Cn2c(=O)n(C3CC3)c3ccncc32)nc2nc(Cl)ccc21 | > 50 | –
38 | – | CS(=O)(=O)CCCn1c(Cn2c(=O)n(C3CC3)c3ccncc32)cc2ccccc21 | > 100 | selectivity ratio [11]: > 10000
39 | 52 | CS(=O)(=O)CCCn1c(Cn2c(=O)n(C3COC3)c3ccncc32)cc2cc(Cl)ccc21 | > 50 | –
40 | 33 | COc1ccc(-n2c(=O)n(Cc3cc4cc(Cl)ccc4n3CCCC#N)c3cnccc32)cc1C | > 50 | –
41 | 0 | CS(=O)(=O)CCCn1c(Cn2c(=O)n(C3CC3)c3ccncc32)nc2nc(Cl)ccc21 | > 50 | –
42 | 0 | N#CCCCn1c(Cn2c(=O)n(C3CC3)c3ccncc32)nc2nc(Cl)ccc21 | > 50 | –

Row | metabolised at 0.25 h [8] [%] | SMILES | CC50 at 72 h [2] [µM] | also measured
43 | – | CC(C)CCn1c(Cn2c(=O)n(C3CC3)c3ccncc32)cc2ccccc21 | > 100 | selectivity ratio [11]: 181; fraction unbound [4]: 0.006
44 | 0 | O=c1n(Cc2nc3nc(Cl)ccc3n2CCCC(F)(F)F)c2cnccc2n1C1CC1 | > 50 | clearance [1]: 23.3 mL/min/kg; Vd [3]: 0.82 L/kg; fraction unbound [4]: 0.3; Cmax [5]: 1690 ng/mL; bioavailability [6]: 46%; AUC [7]: 3370 ng·h/mL; metabolised at 0.25 h [9]: 80%; Kp [10]: 0.4
45 | – | CS(=O)(=O)CCCn1c(Cn2c(=O)n(C3CC3)c3ccncc32)cc2cc(F)ccc21 | > 50 | –
46 | 0 | O=c1n(Cc2nc3nc(Cl)ccc3n2CCCCF)c2cnccc2n1C1CC1 | > 50 | –
47 | 2 | CC(n1c(=O)n(Cc2cc3cc(Cl)ccc3n2CCCS(C)(=O)=O)c2cnccc21)C(F)(F)F (stereo not drawn) | > 50 | –
48 | 98 | CS(=O)(=O)CCCn1c(Cn2c(=O)n(CC3CC3)c3ccncc32)cc2cc(Cl)ccc21 | > 50 | TDI [12]: Not Active
49 | 23 | O=c1n(Cc2cc3cc(Cl)ccc3n2CCCC(F)(F)F)c2cnccc2n1C1CC1 | > 50 | –
50 | – | NC(=O)CCCn1c(Cn2c(=O)n(C3CC3)c3ccncc32)cc2cc(Cl)ccc21 | > 50 | –
51 | – | O=c1n(Cc2nc3ncccc3n2CCCCO)c2cnccc2n1C1CC1 | > 100 | selectivity ratio [11]: > 10000
52 | 45 | N#CCCCn1c(Cn2c(=O)n(-c3ncco3)c3ccncc32)cc2cc(Cl)ccc21 | > 50 | –
53 | 56 | CC(C)(O)CCCn1c(Cn2c(=O)n(C3CC3)c3ccncc32)cc2cc(Cl)ccc21 | > 50 | –
54 | 49 | Cn1ccc(-n2c(=O)n(Cc3cc4cc(Cl)ccc4n3CCCC#N)c3cnccc32)n1 | > 50 | –
55 | 28 | CC(C)(C)n1c(=O)n(Cc2cc3cc(Cl)ccc3n2CCCS(C)(=O)=O)c2cnccc21 | > 50 | –
56 | 99 | O=c1n(Cc2cc3cc(Cl)ccc3n2CCCN2CCOCC2)c2cnccc2n1C1CC1 | > 50 | –
57 | 9 | CS(=O)(=O)CCCn1c(Cn2c(=O)[nH]c3ccncc32)cc2cc(Cl)ccc21 | > 50 | TDI [12]: Not Active
58 | 44 | CC(C)CCn1c(Cn2c(=O)n(C3CC3)c3ccncc32)cc2cnccc21 | > 50 | –
59 | 66 | CS(=O)(=O)CCCn1c(Cn2c(=O)n(CC#N)c3ccncc32)cc2cc(Cl)ccc21 | > 50 | –
60 | 97 | CC(C)n1c(=O)n(Cc2cc3cc(Cl)ccc3n2CCCS(C)(=O)=O)c2cnccc21 | > 50 | TDI [12]: Not Active
61 | 7 | CC(C)CCn1c(Cn2c(=O)n(C3CC3)c3ccncc32)nc2nc(Cl)ccc21 | > 50 | –
